Laboratory results published in ChEMBL document CHEMBL3407416, “Discovery of (R)-8-(1-(3,5-difluorophenylamino)ethyl)-N,N-dimethyl-2-morpholino-4-oxo-4H-chromene-6-carboxamide (AZD8186): a potent and selective inhibitor of PI3Kβ and PI3Kδ for the treatment of PTEN-deficient cancers” (J Med Chem, 2015).

Columns and labels:
[1] = Volume of distribution in mouse at 5 umol/kg, iv administered as bolus dose in 20 to 30% DMA in PBS; format: ADME, organism-based; settings: in vivo
[2] = target: T1, Phosphatidylinositol 4,5-bisphosphate 3-kinase catalytic subunit alpha isoform (Homo sapiens, UniProt P42336); experiment: Inhibition of PI3Kalpha mutant human BT474 cells assessed as inhibition of Akt phosphorylation at […] after 2 hrs; format: cell-based; settings: bt-474
Target sequence in this assay (P42336 whole entry, looked up, canonical isoform): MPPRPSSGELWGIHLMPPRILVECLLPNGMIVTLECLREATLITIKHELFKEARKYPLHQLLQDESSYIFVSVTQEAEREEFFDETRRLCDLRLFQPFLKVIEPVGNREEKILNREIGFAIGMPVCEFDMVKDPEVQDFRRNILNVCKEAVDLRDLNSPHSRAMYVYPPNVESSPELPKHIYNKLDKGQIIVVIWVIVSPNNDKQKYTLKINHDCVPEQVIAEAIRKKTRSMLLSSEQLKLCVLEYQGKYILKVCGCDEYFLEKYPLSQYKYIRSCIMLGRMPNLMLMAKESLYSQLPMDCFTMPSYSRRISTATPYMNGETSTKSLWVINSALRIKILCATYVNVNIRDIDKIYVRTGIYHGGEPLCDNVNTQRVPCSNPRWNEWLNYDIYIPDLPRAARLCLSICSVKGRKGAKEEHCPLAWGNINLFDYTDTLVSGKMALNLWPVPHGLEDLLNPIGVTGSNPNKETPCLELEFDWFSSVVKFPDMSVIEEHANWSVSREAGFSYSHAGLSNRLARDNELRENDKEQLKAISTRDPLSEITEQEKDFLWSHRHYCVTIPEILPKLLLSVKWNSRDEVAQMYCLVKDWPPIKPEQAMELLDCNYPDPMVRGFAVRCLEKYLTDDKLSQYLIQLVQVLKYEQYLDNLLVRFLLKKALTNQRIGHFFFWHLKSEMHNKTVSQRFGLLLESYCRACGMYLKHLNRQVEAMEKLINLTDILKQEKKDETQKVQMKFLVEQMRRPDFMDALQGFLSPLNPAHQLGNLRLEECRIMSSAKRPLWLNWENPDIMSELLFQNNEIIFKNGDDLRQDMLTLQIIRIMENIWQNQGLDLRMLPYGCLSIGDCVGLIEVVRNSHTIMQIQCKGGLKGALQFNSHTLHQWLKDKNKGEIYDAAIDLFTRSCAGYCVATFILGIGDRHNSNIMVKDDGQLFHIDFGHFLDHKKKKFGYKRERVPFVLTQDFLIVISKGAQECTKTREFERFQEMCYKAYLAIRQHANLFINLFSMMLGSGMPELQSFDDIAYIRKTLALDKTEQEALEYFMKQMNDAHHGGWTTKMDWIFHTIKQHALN

[3] = Oral bioavailability in mouse at 30 umol/kg administered as propylene glycol; format: ADME, organism-based; settings: in vivo
[4] = AUC in mouse at 30 umol/kg, po administered as propylene glycol; format: ADME, organism-based; settings: plasma
[5] = Fraction unbound in dog plasma; format: ADME, cell-free, Canis lupus familiaris
[6] = target: T2, Phosphatidylinositol 4,5-bisphosphate 3-kinase catalytic subunit beta isoform (Homo sapiens, UniProt P42338); experiment: Inhibition of PI3Kbeta in PTEN-null human MDA-MB-468 cells assessed as inhibition of Akt phosphorylation after 2 hrs; format: cell-based
T2 sequence (P42338 whole entry, canonical isoform): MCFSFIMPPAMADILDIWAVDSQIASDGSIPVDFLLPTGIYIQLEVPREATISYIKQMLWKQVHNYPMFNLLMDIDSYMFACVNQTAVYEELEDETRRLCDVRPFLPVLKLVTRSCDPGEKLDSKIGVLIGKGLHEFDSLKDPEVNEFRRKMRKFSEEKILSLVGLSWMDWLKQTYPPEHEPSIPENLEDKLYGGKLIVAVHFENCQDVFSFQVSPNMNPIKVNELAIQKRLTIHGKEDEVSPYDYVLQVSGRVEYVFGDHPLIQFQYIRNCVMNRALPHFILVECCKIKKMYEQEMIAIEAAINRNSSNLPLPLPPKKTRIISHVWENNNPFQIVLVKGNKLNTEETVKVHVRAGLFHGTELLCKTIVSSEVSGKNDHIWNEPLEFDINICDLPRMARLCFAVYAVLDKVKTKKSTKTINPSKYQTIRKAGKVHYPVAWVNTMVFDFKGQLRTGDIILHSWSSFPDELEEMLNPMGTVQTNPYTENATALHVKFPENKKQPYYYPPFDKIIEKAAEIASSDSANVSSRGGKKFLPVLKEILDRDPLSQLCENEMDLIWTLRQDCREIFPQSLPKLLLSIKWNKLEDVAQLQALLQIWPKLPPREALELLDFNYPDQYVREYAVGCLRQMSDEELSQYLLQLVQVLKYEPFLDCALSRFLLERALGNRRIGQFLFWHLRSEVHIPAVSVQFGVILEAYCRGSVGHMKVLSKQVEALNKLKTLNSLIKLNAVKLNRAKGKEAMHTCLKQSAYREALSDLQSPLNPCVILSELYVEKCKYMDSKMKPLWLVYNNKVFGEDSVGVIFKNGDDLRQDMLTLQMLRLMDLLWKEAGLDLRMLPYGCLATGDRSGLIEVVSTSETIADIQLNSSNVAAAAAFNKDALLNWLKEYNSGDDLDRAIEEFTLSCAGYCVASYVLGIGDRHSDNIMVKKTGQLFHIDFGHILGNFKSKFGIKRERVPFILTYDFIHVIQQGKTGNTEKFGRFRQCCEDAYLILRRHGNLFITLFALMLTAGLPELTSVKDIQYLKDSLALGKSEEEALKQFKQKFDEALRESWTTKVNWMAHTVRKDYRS

[7] = Intrinsic clearance in cryopreserved human hepatocytes measured per 10^6 cells; format: ADME, cell-based, Hepatocyte; settings: read-out: CLH
[8] = target: Phosphatidylinositol 4,5-bisphosphate 3-kinase catalytic subunit gamma isoform (Homo sapiens, UniProt P48736); experiment: Inhibition of human recombinant PI3Kgamma using PIP2 by Kinase-Glo Plus assay
Chain of Phosphatidylinositol 4,5-bisphosphate 3-kinase catalytic subunit gamma isoform (P48736 whole entry, canonical isoform): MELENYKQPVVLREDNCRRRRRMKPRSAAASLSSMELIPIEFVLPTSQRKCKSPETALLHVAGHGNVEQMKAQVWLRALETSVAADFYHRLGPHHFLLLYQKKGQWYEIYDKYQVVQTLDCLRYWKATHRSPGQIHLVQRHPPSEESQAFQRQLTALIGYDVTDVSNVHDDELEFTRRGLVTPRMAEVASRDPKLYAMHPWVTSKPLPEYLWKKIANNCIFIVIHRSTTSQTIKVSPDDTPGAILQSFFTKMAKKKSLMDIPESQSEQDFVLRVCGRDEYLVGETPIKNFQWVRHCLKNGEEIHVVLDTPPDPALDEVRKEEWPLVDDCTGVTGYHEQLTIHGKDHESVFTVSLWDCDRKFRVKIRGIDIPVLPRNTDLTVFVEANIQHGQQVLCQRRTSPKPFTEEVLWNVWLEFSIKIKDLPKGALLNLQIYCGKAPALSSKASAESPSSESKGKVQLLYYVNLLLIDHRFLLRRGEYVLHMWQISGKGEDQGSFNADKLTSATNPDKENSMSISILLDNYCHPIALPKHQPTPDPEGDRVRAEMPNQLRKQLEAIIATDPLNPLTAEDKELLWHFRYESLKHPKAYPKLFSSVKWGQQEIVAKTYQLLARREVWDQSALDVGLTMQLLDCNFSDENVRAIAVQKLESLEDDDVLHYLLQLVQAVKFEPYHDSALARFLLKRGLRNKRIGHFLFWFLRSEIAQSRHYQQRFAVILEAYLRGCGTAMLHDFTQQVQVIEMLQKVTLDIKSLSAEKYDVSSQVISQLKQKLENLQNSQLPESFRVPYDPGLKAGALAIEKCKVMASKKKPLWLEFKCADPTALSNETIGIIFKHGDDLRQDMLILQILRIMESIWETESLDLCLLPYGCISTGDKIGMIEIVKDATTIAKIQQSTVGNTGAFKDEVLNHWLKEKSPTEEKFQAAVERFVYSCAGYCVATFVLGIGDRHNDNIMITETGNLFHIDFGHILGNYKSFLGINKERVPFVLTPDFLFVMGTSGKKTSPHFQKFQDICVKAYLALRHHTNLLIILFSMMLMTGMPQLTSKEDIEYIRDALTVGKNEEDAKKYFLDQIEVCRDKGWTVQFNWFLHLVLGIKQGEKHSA

[9] = Apparent permeability from apical to basolateral side of human Caco2 cells; format: ADME, cell-based; settings: Caco-2, read-out: permeability
[10] = Lipophilicity, log D of the compound at pH 7.4 by shake-flask method; format: physicochemical; settings: buffer
[11] = target: T2, Phosphatidylinositol 4,5-bisphosphate 3-kinase catalytic subunit beta isoform; experiment: Inhibition of human recombinant PI3Kbeta using PIP2 by Kinase-Glo Plus assay
[12] = Fraction unbound in human plasma; format: ADME, cell-free
[13] = target: T3, Phosphatidylinositol 4,5-bisphosphate 3-kinase catalytic subunit delta isoform (Homo sapiens, UniProt O00329); experiment: Inhibition of human recombinant PI3Kdelta using PIP2 by Kinase-Glo Plus assay
T3 sequence (O00329 whole entry): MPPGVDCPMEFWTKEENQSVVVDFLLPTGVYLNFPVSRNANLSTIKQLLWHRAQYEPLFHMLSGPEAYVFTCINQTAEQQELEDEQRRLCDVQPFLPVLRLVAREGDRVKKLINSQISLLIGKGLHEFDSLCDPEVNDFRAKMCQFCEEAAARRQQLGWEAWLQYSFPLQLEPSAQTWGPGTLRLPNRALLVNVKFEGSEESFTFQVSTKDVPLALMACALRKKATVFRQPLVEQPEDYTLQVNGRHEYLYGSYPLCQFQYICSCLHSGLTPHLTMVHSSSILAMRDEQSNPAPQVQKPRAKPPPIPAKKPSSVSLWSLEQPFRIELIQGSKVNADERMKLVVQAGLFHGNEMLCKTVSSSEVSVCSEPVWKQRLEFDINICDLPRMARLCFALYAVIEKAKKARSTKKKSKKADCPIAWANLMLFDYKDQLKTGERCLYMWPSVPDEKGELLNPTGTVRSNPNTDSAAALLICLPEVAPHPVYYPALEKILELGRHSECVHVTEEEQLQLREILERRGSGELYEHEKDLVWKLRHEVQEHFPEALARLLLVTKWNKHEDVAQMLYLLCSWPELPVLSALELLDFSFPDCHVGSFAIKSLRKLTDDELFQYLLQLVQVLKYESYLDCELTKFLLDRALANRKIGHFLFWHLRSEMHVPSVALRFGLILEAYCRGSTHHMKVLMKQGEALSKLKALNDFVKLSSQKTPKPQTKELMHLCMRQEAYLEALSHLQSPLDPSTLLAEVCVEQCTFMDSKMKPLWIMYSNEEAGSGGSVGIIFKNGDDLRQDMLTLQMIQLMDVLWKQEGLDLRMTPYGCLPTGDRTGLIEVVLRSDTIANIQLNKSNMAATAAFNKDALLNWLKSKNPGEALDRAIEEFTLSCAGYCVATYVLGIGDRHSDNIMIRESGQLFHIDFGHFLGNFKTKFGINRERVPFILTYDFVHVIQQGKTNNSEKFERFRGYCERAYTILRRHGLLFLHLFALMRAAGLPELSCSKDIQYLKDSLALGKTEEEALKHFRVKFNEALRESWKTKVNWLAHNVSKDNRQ

[14] = Clearance in mouse at 5 umol/kg, iv administered as bolus dose in 20 to 30% DMA in PBS; format: ADME, organism-based; settings: in vivo
Mus musculus = experiment: Intrinsic clearance in mouse at 5 umol/kg, iv administered as bolus dose in 20 to 30% DMA in PBS; format: ADME, organism-based; settings: in vivo
[15] = target: T1, Phosphatidylinositol 4,5-bisphosphate 3-kinase catalytic subunit alpha isoform; experiment: Inhibition of human recombinant PI3Kalpha using PIP2 by Kinase-Glo Plus assay
Target sequence in this assay (P42336 whole entry, canonical isoform): as the sequence (P42336 whole entry, looked up, canonical isoform) above

[16] = Fraction unbound in mouse plasma; format: ADME, cell-free
Canis familiaris = experiment: Intrinsic clearance in dog at 5 umol/kg, iv administered as bolus dose in 20 to 30% DMA in PBS; format: ADME, organism-based, Canis lupus familiaris; settings: in vivo
[17] = Clearance in dog at 5 umol/kg, iv administered as bolus dose in 20 to 30% DMA in PBS; format: ADME, organism-based, Canis lupus familiaris; settings: in vivo
[18] = Oral bioavailability in dog at 30 umol/kg administered as propylene glycol; format: ADME, organism-based, Canis lupus familiaris; settings: in vivo
[19] = Volume of distribution in dog at 5 umol/kg, iv administered as bolus dose in 20 to 30% DMA in PBS; format: ADME, organism-based, Canis lupus familiaris; settings: in vivo

Vd [1] [L/kg] | IC50 [2] [µM] | bioavailability [3] [%] | AUC [4] [µM·h] | fraction unbound [5] | IC50 [6] [µM] | hepatocyte CLint [7] [µL/min/1e6 cells] | IC50 [8] [µM] | Papp A→B [9] [×10⁻⁶ cm/s] | logD [10] | IC50 [11] [µM] | fraction unbound [12] | IC50 [13] [µM] | clearance [14] [mL/min/kg] | clearance (Mus musculus) [mL/min/kg] | IC50 [15] [µM] | fraction unbound [16] | Compound | other results
1.7 | 0.5 | 19 | 0.9 | 0.26 | 0.02 | < 3 | 0.32 | 21 | 2.3 | 0.005 | 0.15 | 0.022 | 81 | 64 | 0.028 |  | C[C@@H](Nc1cccc(Cl)c1F)c1cc(C(=O)N(C)C)cc2c(=O)cc(N3CCOCC3)oc12 | 
3.5 | 0.17 | 23 | 0.8 | 0.14 |  | 12 | 0.21 | 11 | 2.8 |  | 0.06 | 0.028 | 134 | 147 | 0.025 | 0.04 | C[C@@H](Nc1cc(F)cc(Cl)c1)c1cc(C(=O)N(C)C)cc2c(=O)cc(N3CCOCC3)oc12 | 
 | 4.7 |  | 0.7 | 0.23 |  | < 3 | 1.2 | 7 | 2.1 |  | 0.17 | 0.053 |  |  | 0.18 | 0.15 | C[C@H](c1cc(C(=O)N(C)CCO)cc2c(=O)cc(N3CCOCC3)oc12)N(C)c1cc(F)cc(F)c1 | 
 | 4.8 |  | 0.8 | 0.23 | 0.012 | < 3 | 1.6 | 4.6 | 2.4 | 0.007 | 0.17 | 0.082 |  |  | 0.37 | 0.18 | C[C@H](c1cc(C(=O)N2CCC(O)CC2)cc2c(=O)cc(N3CCOCC3)oc12)N(C)c1cc(F)cc(F)c1 | 
1.7 | 2.5 | 19 | 0.8 | 0.34 | 0.017 | < 3 | 2.5 | 6.5 | 1.9 | 0.007 | 0.27 | 0.032 | 112 | 57 | 0.17 | 0.25 | C[C@@H](Nc1ccc(F)c(F)c1)c1cc(C(=O)N(C)C)cc2c(=O)cc(N3CCOCC3)oc12 | 
1.7 | 0.9 | 42 | 1.5 | 0.43 | 0.006 | < 5 | 1.5 | 16 | 2.3 | 0.008 | 0.27 | 0.041 | 137 | 99 | 0.14 | 0.28 | C[C@@H](Nc1cc(F)cc(F)c1F)c1cc(C(=O)N(C)C)cc2c(=O)cc(N3CCOCC3)oc12 | clearance (Canis familiaris): 16 mL/min/kg; clearance [17]: 28 mL/min/kg; bioavailability [18]: 47%; Vd [19]: 2.2 L/kg

Compound | Vd [1] [L/kg] | IC50 [2] [µM] | bioavailability [3] [%] | AUC [4] [µM·h] | fraction unbound [5] | IC50 [6] [µM] | hepatocyte CLint [7] [µL/min/1e6 cells] | IC50 [8] [µM] | Papp A→B [9] [×10⁻⁶ cm/s] | logD [10] | IC50 [11] [µM] | fraction unbound [12] | IC50 [13] [µM] | clearance [14] [mL/min/kg] | clearance (Mus musculus) [mL/min/kg] | IC50 [15] [µM] | fraction unbound [16] | other results
C[C@H]1CN(c2cc(=O)c3cc(C(=O)N(C)C)cc([C@@H](C)Nc4cc(F)cc(F)c4)c3o2)CCO1 | 2.2 | 0.11 | 50 | 3.3 | 0.2 | 0.0004 | < 3 | 0.14 | 14 | 2.7 | 0.004 | 0.14 | 0.012 | 76 | 53 | 0.012 | 0.12 | clearance (Canis familiaris): 15 mL/min/kg; clearance [17]: 69 mL/min/kg; bioavailability [18]: 5%; Vd [19]: 2.5 L/kg
